The results in this text go back to ChEMBL document CHEMBL1201862, “PubChem BioAssay data set” (2004).

What all share (experiment): NCI tumour cell line growth inhibition, 48 h
For experiment [1], the system named is 786-0.
Experiment [2] has as its system A498.
The test system of experiment [3] is CCRF-CEM.
For experiment [4], the system named is EKVX.
The subject of experiment [5] is HCC 2998.
In experiment [6] the test system is HCT-116.
The subject of experiment [7] is HOP-92.
Experiment [8] has as its system HT-29.
In experiment [9] the test system is IGROV-1.
Experiment [10] has as its system KM12.
Experiment [11] deals with LOX IMVI.
The subject of experiment [12] is M14.
Experiment [13] deals with MDA-MB-231.
Experiment [14] has as its system MOLT-4.
Experiment [15] relates to NCI-H23.
The subject of experiment [16] is NCI-H522.
Experiment [17] relates to OVCAR-8.
Experiment [18] has as its system SF-295.
Experiment [19] concerns TK-10.
Experiment [20] deals with UACC-62.

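Growth conditions: 96-well plates. Treatment: test compound, 48 hours, 5 concentrations. Analysis: linear interpolation between bracketing concentrations; unreached endpoints set to highest concentration. The concentration for 50% growth inhibition is given as GI50.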 Calls of active or inactive are those of the source. Cut-off read from the data, not from the text of the source: active = GI50 up to about 1.1 µM and inactive = higher. Some results are limits rather than exact numbers.

Consider `COC(=O)c1cc2c(n1S(=O)(=O)c1ccc(C)cc1)C(=O)C(=O)c1[nH]cc(C(=O)OCc3ccccc3)c1-2`, for which the GI50 is 0.23 µM (active) in experiment [1]; 1.65 µM (inactive) in experiment [2]; 0.0873 µM (active) in [3]; 0.279 µM (active) in experiment [4]; 0.218 µM (active) in experiment [5]; 0.0718 µM (active) in experiment [6]. The GI50 in experiment [7] is 0.236 µM (active); in experiment [8], 0.273 µM (active); in experiment [9], 0.197 µM (active); in experiment [10], 0.231 µM (active); in [11], 0.0553 µM (active); in [12] it was 0.0621 µM (active). Also, the GI50 is 0.0274 µM (active) in experiment [13]; 0.0647 µM (active) in [14]; 0.0649 µM (active) in experiment [15]; 0.094 µM (active) in experiment [16]; 0.0989 µM (active) in [17]; 0.12 µM (active) in [18]. For the same compound, the GI50 was 0.716 µM (active) in experiment [19] and 0.0555 µM (active) in experiment [20].
As for `CN(C)CCCNc1ncnc2[nH]cnc12`, the GI50 in experiment [1], in experiment [2], in experiment [3], in [4], in experiment [5] and in experiment [6] was > 100 µM (inactive) throughout. Also, the GI50 is 38.1 µM (inactive) in [7]; > 100 µM (inactive) in experiment [8]; > 100 µM (inactive) in experiment [9]; > 100 µM (inactive) in experiment [10]; > 100 µM (inactive) in experiment [11]; > 100 µM (inactive) in experiment [12]. Further, the GI50 in [13], in [14], in experiment [15], in [16], in experiment [17] and in [18] was > 100 µM (inactive) each time. For the same compound, the GI50 in experiment [19] and in experiment [20] was > 100 µM (inactive) in each case.
Regarding `Cn1c(-c2cccs2)cc(-c2ccccc2)c1-c1cccs1`, the GI50 was 35.4 µM (inactive) in experiment [1]; > 100 µM (inactive) in experiment [2]; > 100 µM (inactive) in [3]; 22.7 µM (inactive) in experiment [4]; > 100 µM (inactive) in experiment [5]; 31.2 µM (inactive) in [6]. Further, the GI50 in experiment [7] was > 100 µM (inactive); in experiment [8], 63 µM (inactive); in [9] it was 39.4 µM (inactive); in [10], 74 µM (inactive); in [11], > 100 µM (inactive); in [12], 56.6 µM (inactive). Further, the GI50 in experiment [13] was > 100 µM (inactive); in experiment [14], 66.2 µM (inactive); in experiment [15], 4.75 µM (inactive); in experiment [16], 50.8 µM (inactive); in experiment [17] it was 65.2 µM (inactive); in [18], 17 µM (inactive). Also, the GI50 is > 100 µM (inactive) in [19] and 97.5 µM (inactive) in [20].
For `CC(C)=CC(=O)c1[nH]c2ccccc2c1CC(=O)NCCc1c[nH]cn1`, the GI50 in experiment [1], in [2], in experiment [3], in experiment [4], in [5] and in [6] was > 100 µM (inactive) throughout. Besides, the GI50 in experiment [7], in experiment [8], in experiment [9], in [10], in experiment [11] and in [12] was > 100 µM (inactive) in each case. The GI50 in experiment [13], in experiment [14], in experiment [15], in [16], in experiment [17] and in [18] was > 100 µM (inactive) in each case. Moreover, the GI50 in experiment [19] and in experiment [20] was > 100 µM (inactive) in each case.
